Our source for the IC50 values is BindingDB's records for doi:10.1016/j.ejmech.2020.112373 (Newlink Genetics, 2020).

pIC50: −log10 of the molar value. Bounds are passed on as bounds.

For assay [1], the target named is Solute carrier family 22 member 1, OCT1 (Homo sapiens) (UniProt O15245). The experiment in a line: Inhibition of OCT1 (unknown origin) expressed in HEK293 cells.
The target in assay [2] is Solute carrier family 22 member 2, OCT2 (Homo sapiens) (UniProt O15244). Kind of assay: Inhibition of OCT2 (unknown origin) expressed in HEK293 cells.
Sequence of Solute carrier family 22 member 2, OCT2 (Homo sapiens) (O15244 whole entry, looked up): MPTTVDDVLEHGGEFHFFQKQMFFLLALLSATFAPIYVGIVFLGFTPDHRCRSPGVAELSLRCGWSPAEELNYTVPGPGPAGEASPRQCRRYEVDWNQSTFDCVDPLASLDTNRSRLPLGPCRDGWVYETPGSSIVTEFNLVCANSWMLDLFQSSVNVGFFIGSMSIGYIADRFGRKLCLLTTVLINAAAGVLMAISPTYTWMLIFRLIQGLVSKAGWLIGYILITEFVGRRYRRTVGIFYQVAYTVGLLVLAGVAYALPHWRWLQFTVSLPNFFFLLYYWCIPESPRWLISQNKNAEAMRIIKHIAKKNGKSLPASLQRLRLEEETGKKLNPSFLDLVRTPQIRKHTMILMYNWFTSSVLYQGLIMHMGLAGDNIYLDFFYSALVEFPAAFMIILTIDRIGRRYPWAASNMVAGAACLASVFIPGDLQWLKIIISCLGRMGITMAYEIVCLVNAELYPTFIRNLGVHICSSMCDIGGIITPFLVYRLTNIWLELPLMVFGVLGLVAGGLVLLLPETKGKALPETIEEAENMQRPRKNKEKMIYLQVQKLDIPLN

Sequence of Solute carrier family 22 member 1, OCT1 (Homo sapiens) (O15245 whole entry, looked up): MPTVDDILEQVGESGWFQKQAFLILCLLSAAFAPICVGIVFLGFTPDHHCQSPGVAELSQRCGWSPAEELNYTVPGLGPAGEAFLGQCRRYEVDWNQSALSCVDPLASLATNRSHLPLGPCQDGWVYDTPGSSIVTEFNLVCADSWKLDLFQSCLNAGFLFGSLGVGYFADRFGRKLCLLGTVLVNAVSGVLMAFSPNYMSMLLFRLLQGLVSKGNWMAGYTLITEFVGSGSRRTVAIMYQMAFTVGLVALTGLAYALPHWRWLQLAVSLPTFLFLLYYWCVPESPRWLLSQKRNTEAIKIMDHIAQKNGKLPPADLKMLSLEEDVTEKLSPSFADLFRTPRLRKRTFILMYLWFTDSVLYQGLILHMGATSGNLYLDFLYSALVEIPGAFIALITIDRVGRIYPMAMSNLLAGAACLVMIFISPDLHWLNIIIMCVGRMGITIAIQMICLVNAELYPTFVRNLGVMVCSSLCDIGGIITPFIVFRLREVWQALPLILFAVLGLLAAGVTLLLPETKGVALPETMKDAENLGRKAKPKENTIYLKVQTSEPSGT

As to `CCOC(=O)[C@@H](Cc1cn(C)c2ccccc12)NC(=O)[C@@H](N)CC(C)C`, the pIC50 in assay [1] and in assay [2] was under 4.30 each time.
